Assay results published in patent US20240043386A1, “Modulators of the Cystic Fibrosis Transmembrane Conductance Regulator Protein and Methods of Use” (AbbVie Global Enterprises Ltd., priority 2021, published 2024).
Where two headings read alike, the source gives them in different places.

Experiments:
[1] = target: T1, F508del/F508del CFTR (Homo sapiens, UniProt P13569, DEL508-508); experiment: Trans-Epithelial Current Clamp (TECC) assay using primary human bronchial epithelial cells; type: cell-based; details: for Emax (% Dual): maximum percent activity relative to positive control (co-corrector 0.15 μM + potentiator 0.45 μM = 100%), primary hBE cells F508del/F508del; for EC50: primary hBE cells homozygous F508del/F508del, test C2 corrector with co-corrector and potentiator, 18-24 hours at 37° C., equivalent CFTR current (IEQ)/AUC
T1 construct: cells isolated from CF patients with the homozygous mutation; endogenous in cells; host or cells: primary human bronchial epithelial (hBE) cells from CF patients homozygous for F508del
How it was run: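 F508del/F508del primary hBE cells grown 35 days at air-liquid interface were treated basolaterally with C2 correctors plus fixed co-corrector and potentiator for 18-24 h at 37° C. TECC-24 current clamp at 36.5° C in HEPES-buffered F-12 Coon's, pH 7.4; equivalent current IEQ=VT/RT, plus AUC between forskolin peak and bumetanide.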

[2] = target: T2, F508delCFTR (Homo sapiens, UniProt P13569, DEL508-508); experiment: Cell Surface Expression-Horse Radish Peroxidase (CSE-HRP) assay in CFBE41o-F508delCFTR-HRP cells; type: cell-based; details: for EC50: CFBE41o-F508delCFTR-HRP cells, 18-24 hours at 33° C., luminescence; for Maximum % activity (without co-corrector) / Maximum % activity (with co-corrector): normalized to on-plate positive control corrector (2 μM)
T2 construct: expressed in transfected cells; host or cells: CFBE41o- human lung-derived epithelial cell line, doxycycline-inducible expression
Experimental: A cellular assay for measuring the F508delCFTR cell surface expression after correction with test compounds either without or with a co-corrector (2 μM of 3-[(2R,4R)-4-({[1-(2,2-difluoro-1,3-benzodioxol-5-yl)cyclopropyl]carbonyl}amino)-7-methoxy-3,4-dihydro-2H-chromen-2-yl]benzoic acid), was developed in human lung derived epithelial cell line (CFBE4lo-) (Veit G et al, (2012) Mol Biol Cell. 23(21): 4188-4202). The development was achieved by expressing the F508delCFTR mutation along with a horseradish peroxidase (HRP) in the fourth exofacial loop, and then measuring the HRP activity using luminescence readout from these cells, CFBE4lo-F508delCFTR-HRP, that were incubated overnight with the test corrector compounds, either without or with the co-corrector. For this primary assay, the CFBE4lo-F508delCFTR-HRP cells were plated in 384-well plates (Greiner Bio-one; Cat 781080) at 4,000 cells/well along with 0.5 μg/mL doxycycline to induce the F508delCFTR-RP expression and further incubated at 37° C., 5% CO2 for 68-72 hours. The test compounds were then added either without or with a co-corrector at the required concentrations and further incubated for 18-24 hours at 33° C. The highest concentration tested was 20 μM or 30 μM (GI-1 to GIII-36) with an 8-point concentration response curve using a 3-fold dilution in both the test compound without or with the co-corrector. Three replicate plates were run to determine one EC50. All plates contained negative controls (dimethyl sulfoxide, DMSO) and positive control (2 μM or 3 μM (GI-1 to GIII-36) of 3-[(2R,4R)-4-({[1-(2,2-difluoro-1,3-benzodioxol-5-yl)cyclopropyl]carbonyl}amino)-7-methoxy-3,4-dihydro-2H-chromen-2-yl]benzoic acid) as well as on-plate concentration response of the positive control. Post incubation, the plates were washed 5× times with Dulbecco's phosphate buffered saline (DPBS), followed by the addition of the HRP substrate, luminol (50 μL), and measuring the HRP activity using luminescence readout on EnVision® Multilabel Plate Reader (Perkin Elmer; product number 2104-0010). The raw counts from the experiment were analyzed using Accelrys® Assay Explorer v3.3.
Z′ greater than 0.5 was used as passing quality control criteria for the plates. The Z′ is defined as:
1−[3*SDPositive Control+3*SDNegative Control/Absolute (MeanPositive Control−MeanNegative Control)]
The % activity measured at each of the 8 test concentrations of the test compound added either without or with a co-corrector (2 μM or 3 μM (GI-1 to GIII-36) of 3-[(2R,4R)-4-({[1-(2,2-difluoro-1,3-benzodioxol-5-yl)cyclopropyl]carbonyl}amino)-7-methoxy-3,4-dihydro-2H-chromen-2-yl]benzoic acid) was normalized to the on-plate positive control using the following formulae:
% activity (Test compound without co-corrector)=[(test compound without co-corrector response−DMSO response)/(positive control response−DMSO response)]*100
% activity (Test compound with co-corrector)=[(test compound with co-corrector response−DMSO response)/(positive control response−DMSO response)]*100
The maximum % activity achieved for the test compound either without or with a co-corrector at any tested concentration is presented in Table 3 along with the respective EC50's calculated using the following general sigmoidal curve with variable Hill slope equation (described as Model 42 in the Accelrys® Assay Explorer v3.3 software):
General sigmoidal curve with concentration, response, top, bottom, EC50 and Hill slope. This model describes a sigmoidal curve with an adjustable baseline, a. The equation can be used to fit curves where response is either increasing or decreasing with respect to the independent variable, “x”.

[3] = with co-corrector (2 μM), read-out: EC50 (with co-corrector)
[4] = without co-corrector, read-out: EC50 (without co-corrector)

T2 sequence (P13569 with tags, fused parts or gaps DEL508-508): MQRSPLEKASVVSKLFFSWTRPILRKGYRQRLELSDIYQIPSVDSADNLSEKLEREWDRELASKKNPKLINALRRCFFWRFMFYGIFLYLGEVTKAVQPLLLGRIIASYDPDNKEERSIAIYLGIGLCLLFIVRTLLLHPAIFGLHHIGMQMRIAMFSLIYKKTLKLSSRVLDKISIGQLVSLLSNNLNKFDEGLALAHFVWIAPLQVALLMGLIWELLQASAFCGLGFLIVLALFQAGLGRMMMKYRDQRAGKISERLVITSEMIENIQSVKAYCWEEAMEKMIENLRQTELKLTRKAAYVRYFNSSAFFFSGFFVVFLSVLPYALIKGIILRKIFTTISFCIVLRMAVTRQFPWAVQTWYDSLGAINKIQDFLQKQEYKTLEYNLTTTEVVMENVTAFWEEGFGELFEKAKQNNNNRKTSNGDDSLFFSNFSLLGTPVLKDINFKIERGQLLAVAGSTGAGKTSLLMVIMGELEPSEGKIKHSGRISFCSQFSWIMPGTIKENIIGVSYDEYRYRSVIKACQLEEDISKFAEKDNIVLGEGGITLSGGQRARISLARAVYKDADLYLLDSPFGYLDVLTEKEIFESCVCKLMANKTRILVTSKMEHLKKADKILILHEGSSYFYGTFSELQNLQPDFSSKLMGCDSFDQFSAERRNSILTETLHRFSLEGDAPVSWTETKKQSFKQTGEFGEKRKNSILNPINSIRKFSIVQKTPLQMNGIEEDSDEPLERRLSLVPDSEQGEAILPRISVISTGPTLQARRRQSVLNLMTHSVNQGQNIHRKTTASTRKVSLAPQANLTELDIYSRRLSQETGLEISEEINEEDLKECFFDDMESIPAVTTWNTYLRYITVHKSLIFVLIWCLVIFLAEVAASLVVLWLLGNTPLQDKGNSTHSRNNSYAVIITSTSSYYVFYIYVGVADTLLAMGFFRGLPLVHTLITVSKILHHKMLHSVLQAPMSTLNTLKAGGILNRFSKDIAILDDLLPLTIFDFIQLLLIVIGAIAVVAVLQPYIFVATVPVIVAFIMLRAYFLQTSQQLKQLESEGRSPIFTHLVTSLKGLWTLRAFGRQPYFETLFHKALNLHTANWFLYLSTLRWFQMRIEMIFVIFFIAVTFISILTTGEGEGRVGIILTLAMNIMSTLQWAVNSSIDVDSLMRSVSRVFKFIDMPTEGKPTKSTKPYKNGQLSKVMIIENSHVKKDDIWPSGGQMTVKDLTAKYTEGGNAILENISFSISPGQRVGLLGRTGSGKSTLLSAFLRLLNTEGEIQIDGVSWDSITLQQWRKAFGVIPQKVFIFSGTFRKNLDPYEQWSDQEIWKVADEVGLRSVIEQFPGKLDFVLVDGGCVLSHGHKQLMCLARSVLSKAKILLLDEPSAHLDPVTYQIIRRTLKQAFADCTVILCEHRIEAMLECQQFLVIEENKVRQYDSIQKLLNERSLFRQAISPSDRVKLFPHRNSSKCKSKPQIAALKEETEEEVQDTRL
T1 sequence (P13569 with tags, fused parts or gaps DEL508-508): as above

SMILES	Emax (% Dual) [1]	EC50 [1]	EC50 [2, 3]	EC50 [2, 4]	Maximum % activity (without co-corrector) ([2]; without co-corrector)	Maximum % activity (with co-corrector) ([2]; with co-corrector (2 μM))
CCOc1cnc([C@@H]2C[C@]2(C(=O)NS(=O)(=O)c2cccc3nc(C)ccc23)c2cc(C)ccc2OC)cn1 (racemic) [Example 62, rac-(1r,2r)-2-(5-ethoxypyrazin-2-yl)-1-(2-methoxy-5-methylphenyl)-N-(2-methylquinoline-5-sulfonyl)cyclopropane-1-carboxamide]	329 % Dual	261 nM	474 nM	990 nM	483%	
COc1ccc(C)cc1[C@]1(C(=O)NS(=O)(=O)c2cccc3nc(C)ccc23)C[C@@H]1c1cnc(C)cn1 (racemic) [Example 89, rac-(1r,2r)-1-(2-methoxy-5-methylphenyl)-2-(5-methylpyrazin-2-yl)-N-(2-methylquinoline-5-sulfonyl)cyclopropane-1-carboxamide]	322 % Dual	142 nM	1260 nM	2240 nM	447%	935%
COc1cncc([C@@H]2C[C@]2(C(=O)NS(=O)(=O)c2cccc3nc(C)ccc23)c2cc(C)ccc2OC)c1 (racemic) [Example 41, rac-(1r,2s)-1-(2-methoxy-5-methylphenyl)-2-(5-methoxypyridin-3-yl)-N-(2-methylquinoline-5-sulfonyl)cyclopropane-1-carboxamide]	244 % Dual	110 nM	1770 nM	2980 nM	497%	
COc1ncc([C@@H]2C[C@]2(C(=O)NS(=O)(=O)c2cccc3nc(C)ccc23)c2cc(C)ccc2OC)cn1 (single isomer, unassigned) [Example 37]	152 % Dual	42 nM	3680 nM	7260 nM	113%	460%
COc1cnc([C@H]2C[C@@]2(C(=O)NS(=O)(=O)c2cccc3nc(C)ccc23)c2cc(C)ccc2OC)c(OC)n1 [Example 82, (1S,2S)-2-(3,5-dimethoxypyrazin-2-yl)-1-(2-methoxy-5-methylphenyl)-N-(2-methylquinoline-5-sulfonyl)cyclopropane-1-carboxamide]	210 % Dual	52.2 nM	351 nM	730 nM	937%	
COc1ccc(C)cc1[C@@]1(C(=O)NS(=O)(=O)c2cccc3nc(C)ccc23)C[C@H]1c1cncc(F)c1 (single isomer, unassigned) [Example 53]	169 % Dual	> 300 nM	2610 nM	3980 nM	229%	625%
COc1ccc(C)cc1[C@]1(C(=O)NS(=O)(=O)c2cccc3nc(C)ccc23)C[C@@H]1c1cccc(C)n1 [Example 96, (1S,2S)-1-(2-methoxy-5-methylphenyl)-2-(6-methylpyridin-2-yl)-N-(2-methylquinoline-5-sulfonyl)cyclopropane-1-carboxamide]	256 % Dual	7.8 nM	990 nM	1980 nM		
CCOc1cnc([C@@H]2C[C@]2(C(=O)NS(=O)(=O)c2cccc3nc(C)ccc23)c2cc(C)ccc2OC)cn1 (single isomer, unassigned) [Example 65]	208 % Dual	19.3 nM	586 nM	1340 nM	394%	828%
COc1ccc(C)cc1[C@]1(C(=O)NS(=O)(=O)c2cccc3nc(C)ccc23)C[C@@H]1c1cc(F)cnc1OC [Example 84, (1S,2R)-2-(5-fluoro-2-methoxypyridin-3-yl)-1-(2-methoxy-5-methylphenyl)-N-(2-methylquinoline-5-sulfonyl)cyclopropane-1-carboxamide]	215 % Dual	17.5 nM	945 nM	1360 nM		
COc1ccc(C)cc1[C@]1(C(=O)NS(=O)(=O)c2cccc3nc(C)ccc23)C[C@@H]1c1ccccc1F (single isomer, unassigned) [Example 25]	305 % Dual	4.3 nM	388 nM	1010 nM		
COc1ccc(C)cc1[C@@]1(C(=O)NS(=O)(=O)c2cccc3nc(C)ccc23)C[C@H]1c1cncc(C)n1 (single isomer, unassigned) [Example 45]	179 % Dual	> 300 nM	4620 nM	6150 nM	128%	427%
COc1ccc(C)cc1[C@]1(C(=O)NS(=O)(=O)c2cccc3nc(C)ccc23)C[C@@H]1c1cncc(C)n1 (single isomer, unassigned) [Example 46]	364 % Dual	30.1 nM	1520 nM	2350 nM	783%	
COc1ccc(C)cc1[C@@]1(C(=O)NS(=O)(=O)c2cccc3nc(C)ccc23)C[C@H]1c1ccccc1 (racemic) [Example 1, rac-(1r,2s)-1-(2-methoxy-5-methylphenyl)-N-(2-methylquinoline-5-sulfonyl)-2-phenylcyclopropane-1-carboxamide]	389 % Dual	5 nM	1430 nM	2840 nM		
COc1nccc([C@@H]2C[C@]2(C(=O)NS(=O)(=O)c2cccc3nc(C)ccc23)c2cc(C)ccc2OC)n1 (racemic) [Example 95, rac-(1r,2r)-1-(2-methoxy-5-methylphenyl)-2-(2-methoxypyrimidin-4-yl)-N-(2-methylquinoline-5-sulfonyl)cyclopropane-1-carboxamide]	209 % Dual	12.6 nM	855 nM	1810 nM	749%	
